Legend:
Type in all cases: cell-based, Human
HCT 116 = experiment: MTT cytotoxicity assay on HCT 116; conditions: 24 h, read-out: Inhibition of cell proliferation, IC50, HCT 116
HCT 116 cell lines = experiment: Cell cycle analysis (PI, FACS); conditions: 24 h
Experimental: The cell cycle analysis was followed where 1 × 10^6 cells were seeded and cultured for 24 h in a 6-well plate containing 2 ml of the media. Cells were then treated with desired concentrations of the given samples that were prepared in media and further incubated for another 24 h. Cells were then harvested and centrifuged at 2000 rpm for 5 min at room temperature and the supernatant was discarded carefully retaining the cell pellet. Cell pellet was then washed by resuspending in 2 ml of 1XPBS. The washing was repeated another time under the same conditions. Further, the supernatant was discarded retaining the pellet. Cells were then fixed by resuspending in 300 µL of Sheath fluid followed by the addition of 1 ml of chilled 70% ethanol drop by drop gently with continuous shaking and one more mL of the same at once. The cells were then stored at 4 °C overnight. Post fixing, the cells were centrifuged at 2000 rpm for 5 min washed twice with 2 ml of cold 1XPBS and suspended in 450 µL of sheath fluid containing 0.05 mg/ml PI (Propidium iodide), 0.05 mg/ml RNase A and incubated for 15 min in the dark (Kasibhatla et al. [2006]).The percentage of cells in various stages of cell cycle both in the treated as well as un-treated populations was determined using FACS Caliber (BD Biosciences, San Jose, CA).

[1] = test system: CDK2 gene expression in HCT 116 cell lines; experiment: Semi-quantitative RT-PCR gene expression of CDK2; conditions: for Relative gene expression of CDK2: control 1.00
Experimental: HCT-116 cells were trypsinized and added to 1 ml TRIzol and vortexed. Samples were then allowed to stand for 5 min at room temperature. 0.2 ml of chloroform per 1 ml of TRIzol was added. The tube was later stoppered and shaken vigorously for 15 s and was allowed to stand at room temperature for 5 min. The resulting mixture was then centrifuged at 10,000×rpm for 15 min at […]. The upper aqueous phase was transferred to another clean tube followed by the addition of 0.5 ml of isopropanol per 1 ml of TRIzol. The contents were mixed gently by inverting the sample 5 times and incubated at room temperature for 5 min. Further, the tubes were centrifuged at 10,000×rpm for the next 10 min at […]. Later, the supernatant was discarded and the RNA pellet was washed by adding 1 ml of 70% ethanol. Further, the contents were mixed gently by inverting the sample for few times. It was again centrifuged for 5 min at 14,000×rpm at […]. In the later step, the supernatant was discarded by inverting the tube on a clean tissue paper. Later, the pellet was dried by incubating in a […] for 5 min at 55 °C. The pellet was then resuspended in 25 µL of DEPC (Diethyl pyro carbonate) treated water.
A semi-quantitative reverse transcriptase polymerase chain reaction (RT-PCR) was carried out using Techno Prime system to determine the levels of β-actin and CDK-2 and CyclinA mRNA expression. The cDNA was synthesized from 2 µg of RNA using the Verso cDNA synthesis kit (Thermo Fischer Scientific) with oligo dT (deoxy thymine) primer according to the manufacturer’s instructions. The reaction volume was set to 20 μL and the cDNA synthesis was performed at 42 °C for 60 min followed by RT inactivation at 85 °C for 5 min (Murakami [1996]).
The PCR mixture (final volume of 20 µL) contains 1 µL of cDNA, 10 µL of Red Taq Master Mix 2× (Ampliqon) and 1 µM of each complementary primer specific for CDK2 and CyclinA and β-actin (internal control) sequence. The samples are denatured at 95 °C for 5 min and amplified using 35 cycles of 95 °C for 30 s then again at 55 °C for 30 s and 72 °C for 1 min for β-actin; the […] annealing was finally set to 56 °C followed by the final elongation at 72 °C for 10 min. […] Ten microliters of the final amplification product are run on a 2% ethidium-stained agarose gel and photographed. Quantification of the results could be accomplished by measuring the optical density of the bands, using the computerized imaging program Image J. The values were normalized to β-actin intensity levels (Bookout and Mangelsdorf [2003]).

COc1ccc(/C=C2\Oc3c(c(OC)cc(OC)c3C3=CCN(C(C)C)CC3)C2=O)cc1OC [NISOA4]
IC50 (HCT 116): 21.2 µM | percentage cell population GO/G1 phase (HCT 116 cell lines; high concentration (25)): 57.97% | percentage cell population G2/M phase (HCT 116 cell lines; low concentration (12.5)): 17.30% | percentage cell population GO/G1 phase (HCT 116 cell lines; low concentration (12.5)): 70.84% | percentage cell population S phase (HCT 116 cell lines; low concentration (12.5)): 10.61% | Band intensity of PCR amplicon of genes, CDK2 ([1]; 12.5 μM): 16,091.61 | Normalized (CDK2 to β-actin) ([1]; 12.5 μM): 0.63 | expression of CDK2 (in words) ([1]; 12.5 μM and 25 μM, HCT 116): clear dose-dependent decrease | Relative gene expression of CDK2 ([1]; 12.5 μM): 0.59 | Band intensity of PCR amplicon of genes, CDK2 ([1]; 25 μM): 13,190.418 | Normalized (CDK2 to β-actin) ([1]; 25 μM): 0.52 | Relative gene expression of CDK2 ([1]; 25 μM): 0.49

Source: article PMC9440176, “Novel benzylidene benzofuranone analogues as potential anticancer agents: design, synthesis and in vitro evaluation based on CDK2 inhibition assays” (3 Biotech, 2022)
